Test results published in ChEMBL document CHEMBL1125149, “Quinazoline antifolate thymidylate synthase inhibitors: benzoyl ring modifications in the C2-methyl series” (J Med Chem, 1990).

Assays:
L1210 [1] = test: Growth inhibition of L1210 cells in culture.; type: functional, cell-based; conditions: Mus musculus
Thymidylate synthase = Thymidylate synthase (Mus musculus, UniProt P07607); test: Inhibition of partially purified thymidylate synthase (TS)
L1210 [2] = test: (§1) Percent control for L1210 cell growth in the presence of thymidine (in vitro); type: functional, Mus musculus; design: concentration or dose not given beside the values
L1210 [3] = test: as §1; type: functional, Mus musculus

Chain of Thymidylate synthase (P07607 whole entry): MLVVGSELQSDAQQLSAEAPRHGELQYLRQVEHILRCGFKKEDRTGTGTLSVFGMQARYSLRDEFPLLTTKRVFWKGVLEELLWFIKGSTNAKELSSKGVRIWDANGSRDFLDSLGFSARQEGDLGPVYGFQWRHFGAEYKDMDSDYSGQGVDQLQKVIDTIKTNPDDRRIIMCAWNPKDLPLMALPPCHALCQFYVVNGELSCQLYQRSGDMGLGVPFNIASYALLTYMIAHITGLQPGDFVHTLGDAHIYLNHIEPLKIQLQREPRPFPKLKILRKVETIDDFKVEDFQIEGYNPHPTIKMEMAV

SMILES	IC50 (L1210 [1]) [nM]	IC50 (Thymidylate synthase) [nM]	Control (L1210 [2]) [%]	Control (L1210 [3]) [%]
CCN(Cc1ccc2nc(C)[nH]c(=O)c2c1)c1ccc(C(=O)N[C@@H](CCC(=O)O)C(=O)O)c(N)c1	1300	310	–	–
C#CCN(Cc1ccc2nc(C)[nH]c(=O)c2c1)c1ccc(C(=O)N[C@@H](CCC(=O)O)C(=O)O)c(N)c1	360	290	–	–
Cc1nc2ccc(CNc3ccc(C(=O)N[C@@H](CCC(=O)O)C(=O)O)cc3F)cc2c(=O)[nH]1	120	9340	86	–
Cc1nc2ccc(CN(CCO)c3ccc(C(=O)N[C@@H](CCC(=O)O)C(=O)O)cc3F)cc2c(=O)[nH]1	85	3580	95	–
Cc1nc2ccc(CN(CCCO)c3ccc(C(=O)N[C@@H](CCC(=O)O)C(=O)O)cc3F)cc2c(=O)[nH]1	170	980	–	–
Cc1nc2ccc(CN(CCCO)c3ccc(C(=O)N[C@@H](CCC(=O)O)C(=O)O)cc3)cc2c(=O)[nH]1	–	–	95	–
Cc1nc2ccc(CN(CCCO)c3ccc(C(=O)N[C@@H](CCC(=O)O)C(=O)O)c(F)c3)cc2c(=O)[nH]1	30	590	95	–
CCN(Cc1ccc2nc(C)[nH]c(=O)c2c1)c1ccc(C(=O)N[C@@H](CCC(=O)O)C(=O)O)c(F)c1	65	45	96	–
CCN(Cc1ccc2nc(C)[nH]c(=O)c2c1)c1ccc(C(=O)N[C@@H](CCC(=O)O)C(=O)O)c(C)c1	1200	320	94	–
CCN(Cc1ccc2nc(C)[nH]c(=O)c2c1)c1ccc(C(=O)N[C@@H](CCC(=O)O)C(=O)O)cc1F	86	680	96	–
Cc1nc2ccc(CN(CCO)c3ccc(C(=O)N[C@@H](CCC(=O)O)C(=O)O)c(F)c3)cc2c(=O)[nH]1	70	78	–	–
CCN(Cc1ccc2nc(C)[nH]c(=O)c2c1)c1ccc(C(=O)N[C@@H](CCC(=O)O)C(=O)O)c(OC)c1	18000	190	–	–
Cc1nc2ccc(CN(C)c3ccc(C(=O)N[C@@H](CCC(=O)O)C(=O)O)c(N)c3)cc2c(=O)[nH]1	760	860	–	–
C#CCN(Cc1ccc2nc(C)[nH]c(=O)c2c1)c1ccc(C(=O)N[C@@H](CCC(=O)O)C(=O)O)c(F)c1	–	–	97	–
C#CCN(Cc1ccc2nc(C)[nH]c(=O)c2c1)c1ccc(C(=O)N[C@@H](CCC(=O)O)C(=O)O)cc1F	52	1430	102	–
Cc1nc2ccc(CN(CC(N)=O)c3ccc(C(=O)N[C@@H](CCC(=O)O)C(=O)O)c(F)c3)cc2c(=O)[nH]1	800	1340	–	–
C=CCN(Cc1ccc2nc(C)[nH]c(=O)c2c1)c1ccc(C(=O)N[C@@H](CCC(=O)O)C(=O)O)c(F)c1	100	76	97	–
Cc1nc2ccc(CN(CC#N)c3ccc(C(=O)N[C@@H](CCC(=O)O)C(=O)O)c(F)c3)cc2c(=O)[nH]1	34	170	90	–
C#CCN(Cc1ccc2nc(C)[nH]c(=O)c2c1)c1ccc(C(=O)N[C@@H](CCC(=O)O)C(=O)O)c(C)c1	360	500	97	–
C#CCN(Cc1ccc2nc(C)[nH]c(=O)c2c1)c1ccc(C(=O)N[C@@H](CCC(=O)O)C(=O)O)c(OC)c1	3000	67	95	–
C#CCN(Cc1ccc2nc(C)[nH]c(=O)c2c1)c1ccc(C(=O)N[C@@H](CCC(=O)O)C(=O)O)c(Cl)c1	250	74	–	–
C=CCN(Cc1ccc2nc(C)[nH]c(=O)c2c1)c1ccc(C(=O)N[C@@H](CCC(=O)O)C(=O)O)cc1	–	–	104	–
Cc1nc2ccc(CN(C)c3ccc(C(=O)N[C@@H](CCC(=O)O)C(=O)O)cc3)cc2c(=O)[nH]1	–	–	100	–
C#CCN(Cc1ccc2nc(C)[nH]c(=O)c2c1)c1ccc(C(=O)N[C@@H](CCC(=O)O)C(=O)O)cc1	–	–	100	–
CCN(Cc1ccc2nc(C)[nH]c(=O)c2c1)c1ccc(C(=O)N[C@@H](CCC(=O)O)C(=O)O)cc1	–	–	88	–
Cc1nc2ccc(CN(C)c3ccc(C(=O)N[C@@H](CCC(=O)O)C(=O)O)cc3F)cc2c(=O)[nH]1	140	1140	–	92

More lines, main results first:

IC50 (L1210 [1]) [nM]	IC50 (Thymidylate synthase) [nM]	SMILES	Control (L1210 [2]) [%]	Control (L1210 [3]) [%]
1500	145	CCN(Cc1ccc2nc(C)[nH]c(=O)c2c1)c1ccc(C(=O)N[C@@H](CCC(=O)O)C(=O)O)c([N+](=O)[O-])c1	–	–
1200	480	C#CCN(Cc1ccc2nc(C)[nH]c(=O)c2c1)c1ccc(C(=O)N[C@@H](CCC(=O)O)C(=O)O)c(C(F)(F)F)c1	–	–
2700	11700	Cc1nc2ccc(CN(CCN)c3ccc(C(=O)N[C@@H](CCC(=O)O)C(=O)O)c(F)c3)cc2c(=O)[nH]1	–	–
130	43	Cc1nc2ccc(CN(CCF)c3ccc(C(=O)N[C@@H](CCC(=O)O)C(=O)O)c(F)c3)cc2c(=O)[nH]1	98	–
64	3780	Cc1nc2ccc(CNc3ccc(C(=O)N[C@@H](CCC(=O)O)C(=O)O)c(F)c3)cc2c(=O)[nH]1	94	–
69	1750	Cc1nc2ccc(CN(CCF)c3ccc(C(=O)N[C@@H](CCC(=O)O)C(=O)O)cc3F)cc2c(=O)[nH]1	–	–
140	5160	C=CCN(Cc1ccc2nc(C)[nH]c(=O)c2c1)c1ccc(C(=O)N[C@@H](CCC(=O)O)C(=O)O)cc1F	97	–
870	120	CCN(Cc1ccc2nc(C)[nH]c(=O)c2c1)c1ccc(C(=O)N[C@@H](CCC(=O)O)C(=O)O)c(Cl)c1	–	–
19	120	Cc1nc2ccc(CN(C)c3ccc(C(=O)N[C@@H](CCC(=O)O)C(=O)O)c(F)c3)cc2c(=O)[nH]1	98	–
400	130	C#CCN(Cc1ccc2nc(C)[nH]c(=O)c2c1)c1ccc(C(=O)N[C@@H](CCC(=O)O)C(=O)O)c([N+](=O)[O-])c1	–	–
800	940	Cc1nc2ccc(CN(C)c3ccc(C(=O)N[C@@H](CCC(=O)O)C(=O)O)c(C)c3)cc2c(=O)[nH]1	–	–
500	90	C#CCN(Cc1ccc2nc(C)[nH]c(=O)c2c1)c1ccc(C(=O)N[C@@H](CCC(=O)O)C(=O)O)c(O)c1	77	–
